Source: PMC5218480 (PLoS ONE, 2017)

Tested on: MV-4-11 cells
Assay: Gene expression microarray analysis (Affymetrix PrimeView) and GSEA
Assay type: cell-based, human
Design: RFU PODN (11730768_x_at) / Fold change /veh PODN (11730768_x_at) / RFU LINC00158 (11744669_a_at) / Fold change /veh LINC00158 (11744669_a_at) / RFU DUSP10 (11751237_a_at) / Fold change /veh DUSP10 (11751237_a_at) / RFU ID3 (11757404_x_at) / Fold change /veh ID3 (11757404_x_at) / RFU PLEKHG5 (11737974_s_at) / Fold change /veh PLEKHG5 (11737974_s_at) / RFU LRRC4B (11730491_at) / Fold change /veh LRRC4B (11730491_at) / RFU GIMAP4 (11747438_a_at) / Fold change /veh GIMAP4 (11747438_a_at) / RFU KRT8 (11758183_x_at) / Fold change /veh KRT8 (11758183_x_at) / RFU CNN1 (11734310_a_at) / Fold change /veh CNN1 (11734310_a_at) / RFU VPS37D (11726825_at) / Fold change /veh VPS37D (11726825_at) / RFU C10orf10 (11716522_x_at) / Fold change /veh C10orf10 (11716522_x_at) / RFU KIR2DL2 /// KIR2DL4 /// KIR2DL5A /// KIR2DL5B /// KIR2DS1 /// KIR2DS2 /// KIR2DS3 /// KIR2DS4 /// KIR3DL3 /// KIR3DL3 /// KIR3DS1 (11738374_at) / Fold change /veh KIR2DL2 /// KIR2DL4 /// KIR2DL5A /// KIR2DL5B /// KIR2DS1 /// KIR2DS2 /// KIR2DS3 /// KIR2DS4 /// KIR3DL3 /// KIR3DL3 /// KIR3DS1 (11738374_at) / RFU C1QL1 (11718748_at) / Fold change /veh C1QL1 (11718748_at) / RFU TMPRSS4 (11747572_a_at) / Fold change /veh TMPRSS4 (11747572_a_at) / RFU HAMP (11756126_x_at) / Fold change /veh HAMP (11756126_x_at) / RFU RNFT2 (11725882_a_at) / Fold change /veh RNFT2 (11725882_a_at) / RFU NR4A2 (11747474_a_at) / Fold change /veh NR4A2 (11747474_a_at) / RFU ABCC12 (11746883_a_at) / Fold change /veh ABCC12 (11746883_a_at) / RFU TMEM136 (11760407_x_at) / Fold change /veh TMEM136 (11760407_x_at) / RFU CLDN22 /// WWC2 (11732394_at) / Fold change /veh CLDN22 /// WWC2 (11732394_at) / RFU HLA-DPB1 (11760878_x_at) / Fold change /veh HLA-DPB1 (11760878_x_at) / RFU SPINT1 (11716480_a_at) / Fold change /veh SPINT1 (11716480_a_at) / RFU GAP43 (11754022_s_at) / Fold change /veh GAP43 (11754022_s_at) / RFU A4GNT (11735810_at) / Fold change /veh A4GNT (11735810_at) / RFU PRB3 (11715151_x_at) / Fold change /veh PRB3 (11715151_x_at) / RFU TUBB4B (11761932_at) / Fold change /veh TUBB4B (11761932_at) / RFU CAPN14 (11732068_a_at) / Fold change /veh CAPN14 (11732068_a_at) / RFU TMCC2 (11721928_a_at) / Fold change /veh TMCC2 (11721928_a_at) / RFU IRGQ (11745062_a_at) / Fold change /veh IRGQ (11745062_a_at) / RFU FAM174B (11720279_a_at) / Fold change /veh FAM174B (11720279_a_at) / RFU TMPRSS4 (11748680_a_at) / Fold change /veh TMPRSS4 (11748680_a_at) / RFU FAM212B (11763350_a_at) / Fold change /veh FAM212B (11763350_a_at) / RFU PLEKHG5 (11743358_a_at) / Fold change /veh PLEKHG5 (11743358_a_at) / RFU ZSCAN30 (11745921_a_at) / Fold change /veh ZSCAN30 (11745921_a_at) / RFU CMKLR1 (11741424_a_at) / Fold change /veh CMKLR1 (11741424_a_at) / RFU LOC101060620 /// MAPK8IP1 (11723275_at) / Fold change /veh LOC101060620 /// MAPK8IP1 (11723275_at) / RFU SPTSSB (11747773_x_at) / Fold change /veh SPTSSB (11747773_x_at) / RFU PRSS12 (11739890_at) / Fold change /veh PRSS12 (11739890_at) / RFU BIN1 (11741810_x_at) / Fold change /veh BIN1 (11741810_x_at) / RFU WNT11 (11732464_a_at) / Fold change /veh WNT11 (11732464_a_at) / RFU C10orf10 (11716521_a_at) / Fold change /veh C10orf10 (11716521_a_at) / RFU C5orf56 (11738089_at) / Fold change /veh C5orf56 (11738089_at) / RFU CYB561 (11721691_x_at) / Fold change /veh CYB561 (11721691_x_at) / RFU ANKRD19P (11752326_a_at) / Fold change /veh ANKRD19P (11752326_a_at) / RFU OR2T12 /// OR2T33 /// OR2T8 (11738714_s_at) / Fold change /veh OR2T12 /// OR2T33 /// OR2T8 (11738714_s_at) / RFU VCAN (11748164_a_at) / Fold change /veh VCAN (11748164_a_at) / RFU JSRP1 (11732532_at) / Fold change /veh JSRP1 (11732532_at) / RFU KRTAP10-11 (11738290_x_at) / Fold change /veh KRTAP10-11 (11738290_x_at) / RFU MYO3A (11730013_a_at) / Fold change /veh MYO3A (11730013_a_at) / RFU EBF3 (11725865_a_at) / Fold change /veh EBF3 (11725865_a_at) / RFU CAMK2N1 (11719241_x_at) / Fold change /veh CAMK2N1 (11719241_x_at) / RFU C5orf56 (11738088_a_at) / Fold change /veh C5orf56 (11738088_a_at) / RFU OLFML3 (11715873_a_at) / Fold change /veh OLFML3 (11715873_a_at) / RFU LOC100653217 /// NTM (11731650_a_at) / Fold change /veh LOC100653217 /// NTM (11731650_a_at) / RFU MAPK11 (11762145_a_at) / Fold change /veh MAPK11 (11762145_a_at) / RFU FIZ1 (11724087_x_at) / Fold change /veh FIZ1 (11724087_x_at) / RFU OASL (11726364_x_at) / Fold change /veh OASL (11726364_x_at) / RFU SOX15 (11748057_x_at) / Fold change /veh SOX15 (11748057_x_at) / RFU CD79A (11719716_a_at) / Fold change /veh CD79A (11719716_a_at) / RFU HIST1H1D (11736915_at) / Fold change /veh HIST1H1D (11736915_at) / RFU CASKIN2 (11723855_a_at) / Fold change /veh CASKIN2 (11723855_a_at) / RFU LOC730098 (11760151_x_at) / Fold change /veh LOC730098 (11760151_x_at) / RFU OR4N2 (11742367_at) / Fold change /veh OR4N2 (11742367_at) / RFU PRRT2 (11749266_a_at) / Fold change /veh PRRT2 (11749266_a_at) / RFU SNX32 (11753110_a_at) / Fold change /veh SNX32 (11753110_a_at) / RFU CDHR5 (11726645_a_at) / Fold change /veh CDHR5 (11726645_a_at) / RFU RCAN1 (11760418_a_at) / Fold change /veh RCAN1 (11760418_a_at) / RFU FAM167A (11723789_a_at) / Fold change /veh FAM167A (11723789_a_at) / RFU FAM26E (11764081_at) / Fold change /veh FAM26E (11764081_at) / RFU ISYNA1 (11749810_s_at) / Fold change /veh ISYNA1 (11749810_s_at) / RFU ACY1 (11761880_at) / Fold change /veh ACY1 (11761880_at) / RFU 11764098_at / Fold change /veh 11764098_at / RFU SAMD14 (11745864_x_at) / Fold change /veh SAMD14 (11745864_x_at) / RFU NPB (11741838_a_at) / Fold change /veh NPB (11741838_a_at) / RFU TMPRSS6 (11731388_a_at) / Fold change /veh TMPRSS6 (11731388_a_at) / RFU KRTAP10-2 (11738614_at) / Fold change /veh KRTAP10-2 (11738614_at) / RFU ARHGAP8 /// PRR5-ARHGAP8 (11727945_x_at) / Fold change /veh ARHGAP8 /// PRR5-ARHGAP8 (11727945_x_at) / RFU KRTAP5-7 /// NADSYN1 (11734609_at) / Fold change /veh KRTAP5-7 /// NADSYN1 (11734609_at) / RFU RASL12 (11751679_a_at) / Fold change /veh RASL12 (11751679_a_at) / RFU CDKN2B (11736163_a_at) / Fold change /veh CDKN2B (11736163_a_at) / RFU PRF1 (11729649_at) / Fold change /veh PRF1 (11729649_at) / RFU, ZNF638 /// ZNF638-IT1 / Fold change vs veh, ZNF638 /// ZNF638-IT1 / RFU, PANK3 / Fold change vs veh, PANK3 / RFU, SH3YL1 / Fold change vs veh, SH3YL1 / RFU, ZEB2 / Fold change vs veh, ZEB2 / RFU, NRIP1 / Fold change vs veh, NRIP1 / RFU, PTTG1IP / Fold change vs veh, PTTG1IP / RFU, CAPN2 / Fold change vs veh, CAPN2 / RFU, MED14 / Fold change vs veh, MED14 / RFU, SNORA58 / Fold change vs veh, SNORA58 / RFU, C1orf63 / Fold change vs veh, C1orf63 / RFU, LRRFIP1 / Fold change vs veh, LRRFIP1 / RFU, NDUFAF7 / Fold change vs veh, NDUFAF7 / RFU, SLC12A2 / Fold change vs veh, SLC12A2 / RFU, IBTK / Fold change vs veh, IBTK / RFU, ESF1 / Fold change vs veh, ESF1 / Fold change vs veh, TMEM50B / RFU, TAOK1 / Fold change vs veh, TAOK1 / RFU, ACBD3 / Fold change vs veh, ACBD3 / RFU, TMA16 / Fold change vs veh, TMA16 / RFU, RWDD3 / Fold change vs veh, RWDD3 / RFU, BCAT1 / Fold change vs veh, BCAT1 / RFU, EDEM3 / Fold change vs veh, EDEM3 / RFU, TMEM33 / Fold change vs veh, TMEM33 / RFU, WDR75 / Fold change vs veh, WDR75 / RFU, AHCTF1 / Fold change vs veh, AHCTF1 / RFU, TFRC / Fold change vs veh, TFRC / RFU, ZDHHC17 / Fold change vs veh, ZDHHC17 / RFU, NOM1 / Fold change vs veh, NOM1 / RFU, ARL8B / Fold change vs veh, ARL8B / RFU, ZBTB11 / Fold change vs veh, ZBTB11 / RFU, TAMM41 / Fold change vs veh, TAMM41 / RFU, KIAA1704 /// LOC100996395 / Fold change vs veh, KIAA1704 /// LOC100996395 / RFU, ING1 / Fold change vs veh, ING1 / RFU, TRMT61B / Fold change vs veh, TRMT61B / RFU, FUBP3 / Fold change vs veh, FUBP3 / RFU, TP53 / Fold change vs veh, TP53 / RFU, TNKS2 / Fold change vs veh, TNKS2 / RFU, ZFP14 / Fold change vs veh, ZFP14 / RFU, ACTR2 / Fold change vs veh, ACTR2 / RFU, PPP3R1 / Fold change vs veh, PPP3R1 / RFU, PIK3R1 / Fold change vs veh, PIK3R1 / RFU, HNRNPA1 / Fold change vs veh, HNRNPA1 / RFU, RNF170 / Fold change vs veh, RNF170 / RFU, ZNF28 / Fold change vs veh, ZNF28 / RFU, RNGTT / Fold change vs veh, RNGTT / RFU, OGT / Fold change vs veh, OGT / RFU, BRD1 / Fold change vs veh, BRD1 / RFU, MARS / Fold change vs veh, MARS / RFU, ZNF655 / Fold change vs veh, ZNF655 / RFU, FAHD1 / Fold change vs veh, FAHD1 / RFU, BDP1 / Fold change vs veh, BDP1 / RFU, LRRCC1 / Fold change vs veh, LRRCC1 / RFU, ARID1A / Fold change vs veh, ARID1A / RFU, ZNF146 / Fold change vs veh, ZNF146 / RFU, ZNF330 / Fold change vs veh, ZNF330 / RFU, GPN3 / Fold change vs veh, GPN3 / RFU, C9orf123 / Fold change vs veh, C9orf123 / RFU, N4BP2L2 / Fold change vs veh, N4BP2L2 / RFU, ARFIP1 / Fold change vs veh, ARFIP1 / RFU, FAM179B / Fold change vs veh, FAM179B / RFU, BCL10 / Fold change vs veh, BCL10 / RFU, UHRF1BP1L / Fold change vs veh, UHRF1BP1L / RFU, BET1 / Fold change vs veh, BET1 / RFU, CNOT2 / Fold change vs veh, CNOT2 / RFU, ZNF268 / Fold change vs veh, ZNF268 / Fold change vs veh, ZNF507 / RFU, DGCR2 / Fold change vs veh, DGCR2 / RFU, WDSUB1 / Fold change vs veh, WDSUB1 / Fold change vs veh, HSP90B1 /// MIR3652 / RFU, ADSS / Fold change vs veh, ADSS / RFU, GK / Fold change vs veh, GK / RFU, ZNF148 / Fold change vs veh, ZNF148 / RFU, TAF9 / Fold change vs veh, TAF9 / RFU, SLC1A5 / Fold change vs veh, SLC1A5 / RFU, SLMO2 / Fold change vs veh, SLMO2 / RFU, ABCC4 / Fold change vs veh, ABCC4 / RFU, LOC101060439 /// RAP1B / Fold change vs veh, LOC101060439 /// RAP1B / RFU, RFX7 / Fold change vs veh, RFX7 / RFU, GTPBP10 / Fold change vs veh, GTPBP10 / RFU, CNEP1R1 / Fold change vs veh, CNEP1R1 / RFU, BIVM-ERCC5 /// ERCC5 / Fold change vs veh, BIVM-ERCC5 /// ERCC5 / RFU, ILF3 / Fold change vs veh, ILF3 / RFU 11762660_at / Fold change /veh 11762660_at / RFU VCAN (11757783_s_at) / Fold change /veh VCAN (11757783_s_at) / RFU DDX43 (11728927_at) / Fold change /veh DDX43 (11728927_at) / RFU KRT8 (11758188_x_at) / Fold change /veh KRT8 (11758188_x_at) / RFU NKD1 (11759106_at) / Fold change /veh NKD1 (11759106_at) / RFU SRD5A1 (11742802_a_at) / Fold change /veh SRD5A1 (11742802_a_at) / RFU TPSAB1 /// TPSB2 (11721975_s_at) / Fold change /veh TPSAB1 /// TPSB2 (11721975_s_at) / RFU GSTM3 (11746129_a_at) / Fold change /veh GSTM3 (11746129_a_at) / RFU IL23R (11737362_x_at) / Fold change /veh IL23R (11737362_x_at) / RFU TMEM51 (11727254_a_at) / Fold change /veh TMEM51 (11727254_a_at) / RFU PIWIL2 (11732686_x_at) / Fold change /veh PIWIL2 (11732686_x_at) / RFU ORM1 (11744905_x_at) / Fold change /veh ORM1 (11744905_x_at) / RFU CCDC152 (11743942_at) / Fold change /veh CCDC152 (11743942_at) / RFU ECM1 (11717891_a_at) / Fold change /veh ECM1 (11717891_a_at) / RFU IL23R (11748794_a_at) / Fold change /veh IL23R (11748794_a_at) / RFU TNFAIP8L3 (11732012_x_at) / Fold change /veh TNFAIP8L3 (11732012_x_at) / RFU MBOAT4 (11741988_at) / Fold change /veh MBOAT4 (11741988_at) / RFU 11764193_at / Fold change /veh 11764193_at / RFU TMEM53 (11763286_at) / Fold change /veh TMEM53 (11763286_at) / RFU MAGEB2 (11727129_at) / Fold change /veh MAGEB2 (11727129_at) / RFU TMEM200A (11744735_a_at) / Fold change /veh TMEM200A (11744735_a_at) / RFU CCDC152 (11751479_a_at) / Fold change /veh CCDC152 (11751479_a_at) / RFU FAM211A (11726209_a_at) / Fold change /veh FAM211A (11726209_a_at) / RFU RGS16 (11746705_a_at) / Fold change /veh RGS16 (11746705_a_at) / RFU VCAN (11755009_s_at) / Fold change /veh VCAN (11755009_s_at) / RFU RHOB (11743442_s_at) / Fold change /veh RHOB (11743442_s_at) / RFU RGS16 (11720943_a_at) / Fold change /veh RGS16 (11720943_a_at) / RFU RGS16 (11720944_at) / Fold change /veh RGS16 (11720944_at) / RFU, VPS4B / Fold change vs veh, VPS4B / RFU, CREB1 / Fold change vs veh, CREB1 / RFU, DNAJC13 / Fold change vs veh, DNAJC13 / RFU, GNAQ / Fold change vs veh, GNAQ / RFU, CDK5R1 / Fold change vs veh, CDK5R1 / RFU, ZRANB3 / Fold change vs veh, ZRANB3 / RFU, CUL4A / Fold change vs veh, CUL4A / RFU, CCNY / Fold change vs veh, CCNY / RFU, UFL1 / Fold change vs veh, UFL1 / RFU, COG3 / Fold change vs veh, COG3 / RFU, DIAPH2 / Fold change vs veh, DIAPH2 / RFU, SKA2 / Fold change vs veh, SKA2 / RFU, AFF3 / Fold change vs veh, AFF3 / RFU, LMF1 / Fold change vs veh, LMF1 / RFU, IPO11 / Fold change vs veh, IPO11 / RFU, DFFB / Fold change vs veh, DFFB / RFU, FOXP1 / Fold change vs veh, FOXP1 / RFU, CARD8 / Fold change vs veh, CARD8 / RFU, STRN3 / Fold change vs veh, STRN3 / RFU, ADK / Fold change vs veh, ADK / RFU, RASSF2 / Fold change vs veh, RASSF2 / RFU, WIPF1 / Fold change vs veh, WIPF1 / RFU, LARP1B / Fold change vs veh, LARP1B / RFU, RASA1 / Fold change vs veh, RASA1 / RFU, RB1 / Fold change vs veh, RB1 / RFU, PPFIA1 / Fold change vs veh, PPFIA1 / RFU, MAT2A / Fold change vs veh, MAT2A / RFU, CCT5 / Fold change vs veh, CCT5 / RFU, WDR92 / Fold change vs veh, WDR92 / RFU, CUX1 / Fold change vs veh, CUX1 / RFU, TTC7A / Fold change vs veh, TTC7A / RFU, TMEM135 / Fold change vs veh, TMEM135 / RFU, DEPTOR / Fold change vs veh, DEPTOR / RFU, CPM / Fold change vs veh, CPM / RFU, DNAJB6 / Fold change vs veh, DNAJB6 / RFU, CACNA2D3 / Fold change vs veh, CACNA2D3 / RFU, DTX4 / Fold change vs veh, DTX4 / RFU, TFCP2 / Fold change vs veh, TFCP2 / RFU, GMCL1 /// GMCL1P1 / Fold change vs veh, GMCL1 /// GMCL1P1 / RFU, AEBP2 / Fold change vs veh, AEBP2 / RFU, SNHG1 /// SNORD22 /// SNORD25 /// SNORD26 /// SNORD27 /// SNORD28 /// SNORD29 /// SNORD31 / Fold change vs veh, SNHG1 /// SNORD22 /// SNORD25 /// SNORD26 /// SNORD27 /// SNORD28 /// SNORD29 /// SNORD31 / Fold change (Aza/veh), C12orf56 (ProbeSet 11735607_a_at) / Fold change (ACY-1035/veh), C12orf56 (ProbeSet 11735607_a_at) / Fold change (Aza/veh), FGFR1OP (ProbeSet 11751329_s_at) / Fold change (ACY-1035/veh), FGFR1OP (ProbeSet 11751329_s_at) / Fold change (Aza/veh), VPS36 (ProbeSet 11739960_a_at) / Fold change (ACY-1035/veh), VPS36 (ProbeSet 11739960_a_at) / RFU SYPL1 (11715823_x_at) / Fold change /veh SYPL1 (11715823_x_at) / RFU IGFBP7 (11715501_s_at) / Fold change /veh IGFBP7 (11715501_s_at) / RFU REEP3 (11722064_at) / Fold change /veh REEP3 (11722064_at) / RFU IGLL1 (11728026_x_at) / Fold change /veh IGLL1 (11728026_x_at): dose or concentration left out as unconfirmed
Conditions: ProbeSet 11725100_s_at; LIST B

## Nc1ncn([C@@H]2O[C@H](CO)[C@@H](O)[C@H]2O)c(=O)n1 [azacitidine]
  RFU, ESF1: 107.31 RFU
